Each structure is given as a SMILES string.

The subject of one data set is anti-KYA-L antibody. Put plainly: Competitive assay with biotinylated kynurenic acid, competitors. Format: binding, rabbit. To be noted: increasing amounts of competitor, FIG. 18. On the procedure:
Also, the cross-reactivity of the antiserum was tested using a competitive assay as diagramed in FIG. 12B. The biotinylated antigen (e.g., biotinylated Ser-D) was coated onto a streptavidin plate. Serotonin (5-HT) or pathway metabolites thereof (e.g., Tryp, 5-OH Tryp or 5-HIAA) in human serum were derivatized and added to the antiserum. The mixture was added to the plate and incubated for 1 hour at RT. The plate was washed several times with wash buffer. The goat anti-rabbit antibody-HRP conjugate solution was added and incubated for 1 hour at RT. The plate was washed several times in wash buffer. A color substrate was added for the colorimetric reaction and stop solution was added prior to reading the plate at 405 nm.
The cross-reactivity of the anti-KYA-L antibody was tested using the competitive assay described above. Briefly, kynurenic acid metabolites, such as L-kynurenine (Ky), 3-hydroxy-DL-kynurenine (H-Ky) and L-tryptophan (Tryp) were used to compete with biotinylated kynurenic acid for antibody binding.

Data set [1] in a line: Stability of 5-HT and 5-HIAA (TLC, loss of signal). Format: physicochemical.

`Nc1ccccc1C(=O)C[C@H](N)C(=O)O` [Ky, L-kynurenine]: the “effect of competitor on level of anti-KYA-L detected” value (“effect of competitor” below) in the data set on anti-KYA-L antibody is on record as “did not change”. As for `N[C@@H](Cc1c[nH]c2ccccc12)C(=O)O` [Trypt, L-tryptophan], the “effect of competitor” value in the data set on anti-KYA-L antibody is given as “did not change”.

Take `NCCCCCC(=O)Nc1ccc2nc(C(=O)O)cc(O)c2c1` [KYA-L, 6-(6-aminohexanamido)-4-hydroxyquinoline-2-carboxylic acid]: the “effect of competitor” value in the data set on anti-KYA-L antibody is “competed”.

Regarding `NCCc1c[nH]c2ccc(O)cc12` [Compound 5-HT, serotonin], in data set [1], the “sensitivity to oxygen / stability” value is recorded as “very unstable”. In addition, the “time in which degradation occurs” value in data set [1] (4° C., from thawing, TLC (FIG. 3)) was “about 7 hours”. In addition, in data set [1] (during a period of 1 week), the “stability (FIG. 4)” value was “unstable”.

`Nc1c(O)cccc1C(=O)CC(N)C(=O)O` (racemic) [H-Ky, 3-hydroxy-DL-kynurenine]: the “effect of competitor” value in the data set with anti-KYA-L antibody is “did not change”.

For the origin of these results see patent US9891235B2, “Pathway specific assays for predicting irritable bowel syndrome diagnosis” (NESTEC S.A., priority 2013, dated 2018).
